# From patent US20260008815A1, “CYCLIC PEPTIDE OR SALT THEREOF, AND USES THEREOF” (FUJIFILM Corporation, priority 2023, published 2026)
# Bridge positions count the residues as written; N and C are the ends. Ends that are not written are not given here. COCH2 = acetyl group that carries the bridge
# T1: FGFR1 Protein, Human, Recombinant (His Tag) (Sino Biological, 10616-H08H) (human, UniProt P11362 22-376)
# T1 construct: bought; not shown: His tag
# T1 sequence (looked up): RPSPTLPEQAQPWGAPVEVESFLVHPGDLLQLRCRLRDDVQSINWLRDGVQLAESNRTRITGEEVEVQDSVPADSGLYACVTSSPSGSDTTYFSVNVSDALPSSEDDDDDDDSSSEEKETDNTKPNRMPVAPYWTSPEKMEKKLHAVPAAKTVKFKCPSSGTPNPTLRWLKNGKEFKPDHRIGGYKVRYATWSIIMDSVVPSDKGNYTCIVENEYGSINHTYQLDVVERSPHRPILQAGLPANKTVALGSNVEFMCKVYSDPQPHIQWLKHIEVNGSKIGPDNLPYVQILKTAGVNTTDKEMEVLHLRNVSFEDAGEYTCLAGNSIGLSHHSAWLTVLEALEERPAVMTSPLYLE
# T2: FGFR3 Protein, Human, Recombinant (ECD, His Tag) (Sino Biological, 16044-H08H) (human, UniProt P22607 23-375)
# T2 construct: extracellular domain; bought; not shown: His tag
# T2 sequence (looked up): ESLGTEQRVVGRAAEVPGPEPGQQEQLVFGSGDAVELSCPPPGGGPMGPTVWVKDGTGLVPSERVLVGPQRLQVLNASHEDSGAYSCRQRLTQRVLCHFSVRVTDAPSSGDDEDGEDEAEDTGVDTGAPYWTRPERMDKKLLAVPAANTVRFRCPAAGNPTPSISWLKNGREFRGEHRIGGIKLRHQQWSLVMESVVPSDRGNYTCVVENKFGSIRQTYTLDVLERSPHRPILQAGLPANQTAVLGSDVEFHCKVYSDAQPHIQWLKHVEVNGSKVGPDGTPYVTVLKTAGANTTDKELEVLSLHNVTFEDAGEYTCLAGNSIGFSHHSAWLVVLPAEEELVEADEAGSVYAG
# T3: FGFR4 Protein, Human, Recombinant (His Tag) (Sino Biological, 10538-H08H) (human, UniProt P22455 22-369)
# T3 construct: bought; not shown: His tag
# T3 sequence (looked up): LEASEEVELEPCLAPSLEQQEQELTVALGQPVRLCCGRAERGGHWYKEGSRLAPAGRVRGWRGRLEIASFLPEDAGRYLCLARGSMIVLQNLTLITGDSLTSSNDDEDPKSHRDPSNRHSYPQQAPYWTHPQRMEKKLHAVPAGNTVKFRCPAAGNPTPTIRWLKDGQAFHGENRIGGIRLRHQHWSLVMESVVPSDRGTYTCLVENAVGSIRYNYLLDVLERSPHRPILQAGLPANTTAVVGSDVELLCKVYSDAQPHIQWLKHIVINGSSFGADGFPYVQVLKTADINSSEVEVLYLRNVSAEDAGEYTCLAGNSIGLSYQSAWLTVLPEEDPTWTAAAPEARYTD
# Columns and labels:
# [1] = system: BaF3 cells stably expressing FGFR (avian); test: BaF3 cell proliferation-promoting effect; type: cell-based; conditions: number of viable cells at the addition concentration (0.001 to 10 nmol/L) giving the largest number; 2 nights; negative control about 100 cells/well
# Method: (§1) The FGFR phosphorylation ability of the cyclic peptide complex was evaluated using the BaF3 cell proliferation-promoting effect in which FGFR was stably expressed.
# (§2) BaF3 cells stably expressing FGFR were established by introducing a vector (human: Sino Biologicals, HG10824-UT, bovine: sequence of Accession No. F1MNW2 was introduced into pCDNA3.1/Hygro(+) Mammalian Expression Vector (Thermo, V87020), porcine: sequence of Accession No. A0A4X1SNN3 was introduced into pCDNA3.1/Hygro(+) Mammalian Expression Vector (Thermo, V87020), and avian: sequence of Accession No. A0A8V0XB17 was introduced into pCDNA3.1/Hygro(+) Mammalian Expression Vector (Thermo, V87020)) into which FGFR gene had been incorporated, into BaF3 cells using NucleoFector (Lonza) and performing drug selection of cells into which the FGFR gene had been introduced using hygromycin.
# (§3) The evaluation of the proliferation-promoting effect of BaF3 cells in which FGFR is stably expressed was performed by the following method. First, RPMI-1640 with L-Glutamine and Phenol Red (FUJIFILM Wako Pure Chemical Corporation, 189-02025) and Fetal Bovine Serum (Thermo, 10270-106) were mixed at a volume ratio of 9:1, and then heparin (STEM CELL, 07980) was added thereto such that the final concentration thereof was 8 μg/mL, thereby preparing a culture medium for evaluation (hereinafter, described as RPMI (10% FBS) medium). Next, the BaF3 cells in which FGFR had been stably expressed were washed twice with RPMI (10% FBS) culture medium, suspended in RPMI (10% FBS) culture medium in which the cyclic peptide complex had been dissolved to a final concentration of 0.001 to 10 nmol/L, and seeded in a 384-well plate. In this case, a condition in which the cyclic peptide complex was not added as a negative control was prepared. After culturing at 37° C. (5% CO2) for 2 nights, Hoechst 33342, Trihydrochloride, Trihydrate-10 mg/mL Solution in Water (Thermo, H3570), -Cellstain (registered trademark)-Calcein-AM solution (1 mg/mL DMSO solution) (DOJINDO, C396), and -Cellstain (registered trademark)-PI solution (DOJINDO, P378) were each added to RPMI (10% FBS) culture medium in a volume amount of 1/1,000 at the final concentration, and live/dead staining of the cells were performed by allowing to stand at room temperature for 1 hour, and imaging was performed using a confocal microscope (Yokogawa Electric Corporation, CQ1). The number of viable cells was calculated from the imaging data, and the cell proliferation-promoting effect was evaluated according to the following evaluation criteria. The number of viable cells in the negative control was about 100 cells/well. The evaluation result preferably satisfies the evaluation criteria A, B, or C.
# (§4) At an addition concentration of the cyclic peptide complex having the largest number of viable cells, evaluation criteria is as follows.
# [2] = system: BaF3 cells stably expressing FGFR (bovine); test: BaF3 cell proliferation-promoting effect; type: cell-based; conditions: number of viable cells at the addition concentration (0.001 to 10 nmol/L) giving the largest number; 2 nights; negative control about 100 cells/well
# Method: as §1, §2, §3, §4
# [3] = system: BaF3 cells stably expressing FGFR (human); test: BaF3 cell proliferation-promoting effect; type: cell-based; conditions: number of viable cells at the addition concentration (0.001 to 10 nmol/L) giving the largest number; 2 nights; negative control about 100 cells/well
# Method: as §1, §2, §3, §4
# [4] = system: BaF3 cells stably expressing FGFR (porcine); test: BaF3 cell proliferation-promoting effect; type: cell-based; conditions: number of viable cells at the addition concentration (0.001 to 10 nmol/L) giving the largest number; 2 nights; negative control about 100 cells/well
# Method: as §1, §2, §3, §4
# [5] = Molecular stability after alkali treatment, LC; type: physicochemical; conditions: 0.5 mol/L sodium hydroxide aqueous solution added, room temperature, 3 hours
# Method: In addition, the stability of the cyclic peptide (SEQ ID NO: 450) containing a cysteine residue in the cyclized portion and the cyclic peptide (SEQ ID NO: 442) containing a homocysteine residue in the cyclized portion was compared under the following alkali treatment, which is a more severe condition.
# The alkali treatment was performed by the following method. 25 μL of a 0.2 mg/ml cyclic peptide aqueous solution was prepared, 58.8 μL of a 0.5 mol/L sodium hydroxide aqueous solution was added to the aqueous solution, and the mixture was incubated at room temperature for 3 hours to obtain an aqueous solution of the cyclic peptide alkali-treated. The total area of all the peaks in LC/MS of the cyclic peptide before the alkali treatment was set to 100%, and the proportion of the total area of all the peaks in LC/MS of the aqueous solution of the cyclic peptide alkali-treated was determined to calculate the residual rate of the cyclic peptide.
# The LC conditions used for the evaluation of molecular stability are the same as those in the measurement of the above-described cyclic peptide treated with a reducing agent.
# [6] = target: T1, FGFR1 Protein, Human, Recombinant (His …); test: SPR, 1 umol/L FGFR over immobilized peptide
# Method: (§5) Next, 70 μL of a mixed aqueous solution of 0.2 mol/L 1-(3-dimethylaminopropyl)-3-ethylcarbodiimide (EDC) and 0.05 mol/L N-hydroxysuccinimide (NHS) was added to activate the sensor chip. Then, a cyclic peptide prepared to 2 mg/mL in HBS-EP buffer was added thereto to perform immobilization at about 200 RU. Thereafter, the blocking treatment was performed with an ethanolamine solution. In addition, in another flow channel of the same sensor chip, blocking treatment was performed immediately after activation without immobilizing FGFR.
# (§6) After various FGFRs (FGFR1 Protein, Human, Recombinant (His Tag) (Sino Biological, 10616-H08H), FGFR2 Protein, Human, Recombinant (His Tag) (Sino Biological, 10824-H08H), FGFR3 Protein, Human, Recombinant (ECD, His Tag) (Sino Biological, 16044-H08H), FGFR4 Protein, Human, Recombinant (His Tag) (Sino Biological, 10538-H08H)) diluted with HBS-EP to 1 μmol/L at 25° C. was added to each flow channel of the cyclic peptide-immobilized sensor chip prepared above, for 10 minutes, HBS-EP was allowed to flow as a running buffer for 30 minutes, and the binding of various FGFRs to the cyclic peptide was measured. Thereafter, a regeneration treatment of removing the bound FGFR was performed by repeating the flow of a regeneration liquid in which sodium chloride (final concentration: 0.4 mol/L) and a sodium dodecyl sulfate aqueous solution (mixed concentration: 1%, final concentration: 0.2%) were dissolved in Glysine 1.5 (Cytiva, BR100354) for 1 minute in each flow channel twice. The binding amount of the cyclic peptide was evaluated from the difference between the measured value of Biacore-T200 in the flow channel in which the cyclic peptide was immobilized and the measured value of Biacore-T200 in the flow channel in which the cyclic peptide was not immobilized, in a case where 1 μmol/L FGFR was allowed to flow.
# (§7) The binding amount of FGFR evaluated above was normalized to the binding amount of FGFR molecules per one molecule of the cyclic peptide using the molecular weights of the cyclic peptide and FGFR, and the binding affinity to FGFR was evaluated according to the following evaluation criteria. The evaluation result preferably satisfies the evaluation criteria A, B, or C.
# [7] = target: T4, FGFR2 Protein, Human, Recombinant (His Tag) (Sino Biological, 10824-H08H) (human, UniProt P21802 22-377); test: SPR, 1 umol/L FGFR over immobilized peptide
# T4 construct: bought; not shown: His tag
# T4 sequence (P21802 22-377 limits assumed): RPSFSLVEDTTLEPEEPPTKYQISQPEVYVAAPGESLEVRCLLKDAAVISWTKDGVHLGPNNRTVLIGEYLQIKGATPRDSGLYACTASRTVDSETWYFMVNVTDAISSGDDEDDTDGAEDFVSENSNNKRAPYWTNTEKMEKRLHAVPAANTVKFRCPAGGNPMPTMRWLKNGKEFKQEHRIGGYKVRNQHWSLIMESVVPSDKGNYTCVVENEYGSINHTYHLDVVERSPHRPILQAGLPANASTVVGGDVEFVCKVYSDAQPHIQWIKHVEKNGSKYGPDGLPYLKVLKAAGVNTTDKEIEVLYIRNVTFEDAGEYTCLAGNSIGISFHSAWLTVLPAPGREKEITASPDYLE
# Method: as §5, §6, §7
# [8] = target: T2, FGFR3 Protein, Human, Recombinant (ECD, …); test: SPR, 1 umol/L FGFR over immobilized peptide
# Method: as §5, §6, §7
# [9] = target: T3, FGFR4 Protein, Human, Recombinant (His …); test: SPR, 1 umol/L FGFR over immobilized peptide
# Method: as §5, §6, §7
# [10] = target: T5, Recombinant Human FGFR2 alpha (IIIc) Fc Chimera Protein, CF (R&D systems, 712-FR-050) (human, UniProt P21802 22-377); test: SPR, 10 nmol/L peptide over immobilized FGFR2-Fc
# T5 construct: bought; not shown: Fc part of the chimera
# T5 sequence (P21802 22-377, change not shown): as the sequence (P21802 22-377 limits assumed) above
# Method: A CM5 sensor chip (Cytiva, 29149603) was set in Biacore-T200 (manufactured by Cytiva) which is a surface plasmon resonance device, and an HBS-EP buffer (Cytiva, BR100826) was added as a running buffer at a flow rate of 10 μL/min to equilibrate the flow channel. Next, 70 μL of a mixed aqueous solution of 0.2 mol/L 1-(3-dimethylaminopropyl)-3-ethylcarbodiimide (EDC) and 0.05 mol/L N-hydroxysuccinimide (NHS) was added to activate the sensor chip. Then, Recombinant Human FGFR2 alpha (IIIc) Fc Chimera Protein CF (R&D systems, 712-FR-050) prepared at 50 nmol/L in an Acetate 4.5 buffer (Cytiva, BR100350) was added thereto to perform immobilization at about 5000 RU. Thereafter, the blocking treatment was performed with an ethanolamine solution. In addition, in another flow channel of the same sensor chip, blocking treatment was performed immediately after activation without immobilizing FGFR.
# A cyclic peptide diluted to 10 nmol/L using HBS-EP was added to each flow channel of the FGFR-immobilized sensor chip produced above at 25° C. for 10 minutes, then HBS-EP was allowed to flow as a running buffer for 30 minutes, and the binding of the cyclic peptide to FGFR was measured. Thereafter, a regeneration treatment of removing the bound cyclic peptide was performed by repeating the flow of a regeneration liquid in which sodium chloride powder was dissolved in Glysine 1.5 (Cytiva, BR100354) to a final concentration of 0.15 mol/L for 1 minute in each flow channel twice. The binding amount of the cyclic peptide was evaluated from the difference between the measured value of Biacore-T200 in the flow channel in which FGFR was immobilized and the measured value of Biacore-T200 in the flow channel in which FGFR was not immobilated, in a case where a 10 nmol/L cyclic peptide was allowed to flow.
Molecule,Evaluation result of cell proliferative properties Avian [1],Evaluation result of cell proliferative properties Bovine [2],Evaluation result of cell proliferative properties Human [3],Evaluation result of cell proliferative properties Porcine [4],residual rate of the cyclic peptide [5] [%],also measured
459 (QCPQNFINPVQWRYFQHYKNQCPQNFINPVQWRYFQHYKNK; also: cyclic peptide) [compound 459],"B (The number of viable cells is 400 cells/well or more and less than 1,000 cells/well.)","B (The number of viable cells is 400 cells/well or more and less than 1,000 cells/well.)","A (The number of viable cells is 1,000 cells/well or more.)","A (The number of viable cells is 1,000 cells/well or more.)",,
460 (YCEENYLDPEQYQYFIYFKYKYCEENYLDPEQYQYFIYFKYK; also: cyclic peptide) [compound 460],"A (The number of viable cells is 1,000 cells/well or more.)","A (The number of viable cells is 1,000 cells/well or more.)","A (The number of viable cells is 1,000 cells/well or more.)","A (The number of viable cells is 1,000 cells/well or more.)",,
Y-(C)-EENYLDPEQYQYFIYF-(K(acetyl))-YKKK (YCEENYLDPEQYQYFIYFK(COCH2)YKKK; thioether 2-19) [SEQ ID NO: 450],,,,,36,
"Y-(Hcy)-EENYLDPEQYQYFIYF-(K(acetyl))-YKKK (YXEENYLDPEQYQYFIYFKYKKK; homocysteine, acetyl-lysine; Description of Artificial Sequence: Cyclic peptide) [SEQ ID NO: 442]",,,,,61,
"YCEENYLDPEQYQYFIYFK(COCH2)YKKK (thioether 2-19, chemically synthesized) [cyclic peptide SEQ ID NO: 450]",,,,,,"binding amount (SPR, FGFR molecules bound per cyclic peptide molecule) [6]: 0.01 to 0.05 moleculesoffgfr/onemoleculeofthecyclicpeptide; binding amount (SPR, FGFR molecules bound per cyclic peptide molecule) [7]: ≥ 0.05 moleculesoffgfr/onemoleculeofthecyclicpeptide; binding amount (SPR, FGFR molecules bound per cyclic peptide molecule) [8]: 0.01 to 0.05 moleculesoffgfr/onemoleculeofthecyclicpeptide; binding amount (SPR, FGFR molecules bound per cyclic peptide molecule) [9]: 0.01 to 0.05 moleculesoffgfr/onemoleculeofthecyclicpeptide; binding amount (SPR, cyclic peptide molecules bound per FGFR molecule at 10 nmol/L peptide) [10]: ≥ 0.7 moleculesofthecyclicpeptide/onemoleculeoffgfr"
